Reference: PMC8950706, “Influence of Substitutions in the Binding Motif of Proline-Rich Antimicrobial Peptide ARV-1502 on 70S Ribosome Binding and Antimicrobial Activity” (International Journal of Molecular Sciences, 2022)
Converted amounts (≈) assume the structure as drawn. Marks after values point to notes of the source that are not given here. Square brackets hold non-standard residues; d marks the D form. Ends that are not written are not given here. Peptide text beside a SMILES is read from it. Ac6c = NC1(C(=O)O)CCCCC1

Assays:
E. coli 70S ribosome [1] = test: Cell-free GFP expression assay (in vitro translation); assay type: biochemical; conditions: for In Vitro Translation (%): GFP expression remaining relative to control, concentration not given (higher concentration 50 µmol/L); for Reduction of GFP expression, 50 µmol/L peptide: cell-free expression, peptide-to-ribosome ratio of 25, GFP fluorescence, 37 °C
Excerpt: Possible effects of ARV-1502 and its substituted analogs on the in vitro translation of the green fluorescent protein (GFP) were probed using the NEB PureExpress Delta RF123 Kit (New England Biolabs, Ipswich, MA, USA). The sfGFP DNA template was amplified from pY71sfGFP plasmid by PCR introducing an UAA stop codon. Release factor 1 (RF1) was 50fold diluted in Pure System Buffer (PSB) containing magnesium acetate (1 mol/L), monopotassium phosphate (0.5 mol/L, pH 7.3), potassium glutamate (1 mol/L), NH4Cl (1 mol/L), calcium chloride (0.5 mol/L), spermidine (1 mol/L), putrescine (0.1 mol/L), and DTT (0.1 mol/L). Each reaction used 35 ng of sfGFP template. Peptides were added at a final concentration of 5 µmol/L and 50 µmol/L. The reaction was started by adding Kit solutions A (2 µL) and B (1.5 µL), diluted RF1 (0.5 µL), sfGFP template (0.25 µL or water as negative control), PSB (0.25 µL), and peptide (0.5 µL or water), mixed, transferred into a black 384-well plate (flat bottom, Greiner Bio-One GmbH), and incubated (37 °C, 2 h). The fluorescence was recorded every 10 min (λexc = 485 nm, λem = 535 nm) in a microplate reader (Gemini EM, Molecular Devices LLC, San Jose, CA, USA).

E. coli 70S ribosome [2] = test: Competitive FP binding screening assay with Cf-ARV-1502 (relative FP); set-up: species or system E. coli BW25113; conditions: for Ribosome Binding (%): competitive ribosome binding against Cf-ARV-1502 (relative FP; values match 1.2 µmol/L peptide), low value = strong competition; for Inhibition of Cf-ARV-1502 binding to the 70S ribosome (in words): Figure 3: peptide concentration 1.2 µmol/L
Description: E. coli 70S ribosomes were prepared using a previously described protocol that was slightly modified. Briefly, E. coli BW25113 was cultivated in Luria-Bertani (LB) medium and cells were harvested after reaching an optical density of ~4 at 600 nm by centrifugation (5000× g, 15 min, 4 °C, Rotor JLA 8.100, Avanti J-20 XP, Beckmann Coulter, Krefeld, Germany). The cell pellets were frozen and stored at −80 °C. Cells were resuspended in ribosome buffer (2 mL/g cells; 20 mmol/L HEPES-KOH, 6 mmol/L MgCl2, 30 mmol/L NH4Cl, 4 mmol/L 2-mercaptoethanol, pH 7.6). Lysozyme (0.25 g/L cell suspension) was added, and the mixture was incubated on ice for 30 min. Cells were disrupted using the bead mill homogenizer FastPrep-24™ 5G (40 s, 4 m/s, 6 cycles, MP Biomedicals Germany GmbH, Eschwege, Germany) and zirconia/silica beads (0.1 mm diameter). The lysate was centrifuged (1500× g, 5 min, 4 °C, Rotor S4180, Allegra 21R, Beckmann Coulter) and the supernatant was incubated with DNase (5 U/mL) on ice for 60 min. The cell debris was removed by two centrifugation steps (16,000× g, 30 min, 4 °C followed by 32,000× g, 60 min, 4 °C, Rotor JA 30.50 Ti, Avanti J-30I, Beckmann Coulter). The ribosome was pelleted by ultracentrifugation (165,000× g, 17 h, 4 °C, Rotor 70 Ti, Optima LE-80K, Beckmann Coulter), resuspended in ribosome buffer (0.1 mL/g pellet), and stored at −80 °C. The ribosome concentration was determined by recording the absorbance of RNA at 260 nm (NanoPhotometer NP80, Implen GmbH, München, Germany) assuming that 1 AU corresponds to a ribosome concentration of 28 nmol/L. The molecular weight of the E. coli 70S ribosome was assumed to be 2.3 MDa.
E. coli 70S ribosomes and Cf-ARV-1502 were incubated with four different concentrations of unlabeled peptides chosen based on the IC50 curves of reference peptide ARV-1502. Each peptide was diluted in ribosome buffer to obtain a concentration of 4.8 µmol/L and transferred to a 384-well-plate. Peptides were then twofold serially diluted in four steps from 4.8 to 0.6 µmol/L (20 µL). The ribosome extract was diluted in ribosome buffer to reach a concentration of 2 µmol/L and 10 µL were added to each well to obtain a final ribosome concentration of 0.5 µmol/L. Plates were centrifuged (2 min, 500× g, Rotor S2096, Allegra^TM 21R, Beckmann Coulter) and incubated at 28 °C for 90 min. Cf-labeled ARV-1502 was added (10 µL; final concentration of 20 nmol/L) and the plates were again centrifuged and incubated (28 °C, 90 min). After incubation, fluorescence polarization was recorded on a […]^TM microplate reader (λex = 485 nm, λem = 535 nm).
On each plate 12 minimum (30 µL ribosome buffer and 10 µL Cf-ARV-1502) and 12 maximum (20 µL ribosome buffer, 10 µL ribosome solution and 10 µL Cf-ARV-1502) control samples were added. Fluorescence polarization of screening samples was normalized to the fluorescence polarization of these control samples. All screening samples were measured in triplicates and the whole experiment was repeated once on another day.

E. coli BW25113 = test: MIC, liquid broth micro dilution, wild type; assay type: cell-based, Escherichia coli; conditions: for Minimal Inhibitory Concentration, 25% MHB2, wt / Minimal Inhibitory Concentration, 33% TSB, wt: BW25113, 20 h
Description: (§1) MIC values were determined using a liquid broth micro dilution assay in sterile 96-well plates (polystyrene F-bottom, Greiner Bio-One GmbH) and a total volume of 100 μL per well. Aqueous peptide solutions (10 g/L) were serially twofold diluted in 25% Mueller-Hinton broth 2 (25% MBH2) or 33% tryptic soy broth (33% TSB) starting at a peptide concentration of 128 mg/L (50 μL/well). Overnight cultures of bacteria grown in 25% MHB2 (or 33% TSB) were diluted 30-fold in 25% MHB2 (or 33% TSB). After an incubation period of 4 h (37 °C, 200 rpm), cells were diluted to 1.5 × 10^7 cfu/mL, based on a McFarland test, and 50 μL were added to each well (final concentration of 7.5 × 10^6 […]). The plates were incubated (37 °C, 20 h) and the optical density was recorded at 595 nm using a microplate reader ([…]^TM, Beckmann Coulter). The MIC was defined as the lowest peptide concentration preventing visible bacterial growth.

[3] = test system: E. coli BW25113 ∆sbmA ∆mdtM; assay type: cell-based, Escherichia coli; conditions: ∆sbmA ∆mdtM compared with ∆sbmA
Description: as §1

| Compound | In Vitro Translation (%) (E. coli 70S ribosome [1]) | Reduction of GFP expression, 50 µmol/L peptide (E. coli 70S ribosome [1]) | Ribosome Binding (%) (E. coli 70S ribosome [2]) | MIC (µg/mL), Table 3 (E. coli BW25113; BW25113, 4 h) [µg/mL] | Minimal Inhibitory Concentration, 25% MHB2, wt (E. coli BW25113) [µg/mL] | MIC / activity against E. coli (E. coli BW25113; BW25113, 4 h) [µg/mL] | Minimal Inhibitory Concentration, 33% TSB, wt (E. coli BW25113) | Effect of the additional mdtM knockout on antibacterial activity [3] | Inhibition of Cf-ARV-1502 binding to the 70S ribosome (in words) (E. coli 70S ribosome [2]) | MIC / activity against E. coli (E. coli BW25113; medium not given) |
| --- | --- | --- | --- | --- | --- | --- | --- | --- | --- | --- |
| CC(C)[C@H](NC(=O)[C@@H]1CCCN1C(=O)[C@H](CCCNC(=N)N)NC(=O)[C@@H]1CCCN1C(=O)[C@@H]1CCCN1C(=O)[C@H](CCCNC(=N)N)NC(=O)[C@@H]1CCCN1C(=O)[C@H](CCCNC(=N)N)NC(=O)[C@@H]1CCCN1C(=O)[C@H](CCCCN)NC(=O)[C@H](CO)NC(=O)[C@@H]1CCCN1C(=O)[C@H](CCCNC(=N)N)NC(=O)[C@@H]1CCCN1C(=O)[C@H](CCCCN)NC(=O)[C@H](CC(=O)O)NC(=O)[C@@H]1CCCN1C(=O)[C@H](CCCNC(=N)N)NC(=O)C1(N)CCCCC1)C(=O)N[C@@H](CCCNC(=N)N)C(N)=O [Peptide 125] (H-[Ac6c]RPDKPRPSKPRPRPPRPVR-NH2; N-terminus and C-terminus assumed) | 104.3 ± 9.3 | slightly improved GFP translation | 86.3 ± 2.5 | 128 (≈ 53 µM) | 128 | – | – | – | – | – |
| CC(C)C[C@H](NC(=O)[C@H](Cc1ccc(O)cc1)NC(=O)[C@@H]1CCCN1C(=O)[C@H](CCCNC(=N)N)NC(=O)[C@@H]1CCCN1C(=O)[C@H](CCCCN)NC(=O)[C@H](CCCCN)NC(=O)[C@@H]1CCCN1C(=O)[C@H](CCCNC(=N)N)NC(=O)C1(N)CCCCC1)C(=O)N1CCC[C@H]1C(=O)N[C@@H](Cc1ccccc1)C(=O)N1CCC[C@H]1C(=O)N[C@@H](CCCNC(=N)N)C(=O)N1CCC[C@H]1C(=O)N1CCC[C@H]1C(=O)N[C@@H](CCCNC(=N)N)C(=O)N1CCC[C@H]1C(=O)N[C@H](C(=O)N[C@@H](CCCNC(=N)N)C(N)=O)C(C)C [Peptide 46] (H-[Ac6c]RPKKPRPYLPFPRPPRPVR-NH2; N-terminus and C-terminus assumed) | 96.6 ± 3.1 | did not inhibit GFP expression | 87.1 ± 3.4 | – | 16 | 16 (≈ 6.45 µM) | 64 * µg/mL | – | – | – |
| CC(C)[C@H](NC(=O)[C@@H]1CCCN1C(=O)[C@H](CCCNC(=N)N)NC(=O)[C@@H]1CCCN1C(=O)[C@@H]1CCCN1C(=O)[C@H](CCCNC(=N)N)NC(=O)[C@@H]1CCCN1C(=O)[C@H](CCCNC(=N)N)NC(=O)[C@@H]1CCCN1C(=O)[C@H](CCCCN)NC(=O)[C@H](Cc1ccc(O)cc1)NC(=O)[C@@H]1CCCN1C(=O)[C@H](CCCNC(=N)N)NC(=O)[C@@H]1CCCN1C(=O)[C@H](CCCCN)NC(=O)[C@H](CCCCN)NC(=O)[C@@H]1CCCN1C(=O)[C@H](CCCNC(=N)N)NC(=O)C1(N)CCCCC1)C(=O)N[C@@H](CCCNC(=N)N)C(N)=O [Peptide 37] (H-[Ac6c]RPKKPRPYKPRPRPPRPVR-NH2; N-terminus and C-terminus assumed) | 63.4 ± 13.3 | ~ 40% | 56.7 ± 2.6 | 16 (≈ 6.39 µM) | 16 | – | 64 µg/mL | – | – | – |
| CC(C)C[C@H](NC(=O)[C@H](Cc1ccc(O)cc1)NC(=O)[C@@H]1CCCN1C(=O)[C@H](CCCNC(=N)N)NC(=O)[C@@H]1CCCN1C(=O)[C@H](CO)NC(=O)[C@H](CCCCN)NC(=O)[C@@H]1CCCN1C(=O)[C@H](CCCNC(=N)N)NC(=O)C1(N)CCCCC1)C(=O)N1CCC[C@H]1C(=O)N[C@@H](CCCNC(=N)N)C(=O)N1CCC[C@H]1C(=O)N[C@@H](CCCNC(=N)N)C(=O)N1CCC[C@H]1C(=O)N1CCC[C@H]1C(=O)N[C@@H](CCCNC(=N)N)C(=O)N1CCC[C@H]1C(=O)N[C@H](C(=O)N[C@@H](CCCNC(=N)N)C(N)=O)C(C)C [Peptide 29] (H-[Ac6c]RPKSPRPYLPRPRPPRPVR-NH2; N-terminus and C-terminus assumed) | 74.3 ± 10.1 | ~ 25% | 78.5 ± 3.3 | 16 (≈ 6.54 µM) | 16 | – | 32 µg/mL | no effect | – | – |
| 6: Chex-RPDDPRPYLPRPRPPRPVR-NH2 ([Ac6c]RPDDPRPYLPRPRPPRPVR-NH2; N-terminus assumed; SMILES CC(C)C[C@H](NC(=O)[C@H](Cc1ccc(O)cc1)NC(=O)[C@@H]1CCCN1C(=O)[C@H](CCCNC(=N)N)NC(=O)[C@@H]1CCCN1C(=O)[C@H](CC(=O)O)NC(=O)[C@H](CC(=O)O)NC(=O)[C@@H]1CCCN1C(=O)[C@H](CCCNC(=N)N)NC(=O)C1(N)CCCCC1)C(=O)N1CCC[C@H]1C(=O)N[C@@H](CCCNC(=N)N)C(=O)N1CCC[C@H]1C(=O)N[C@@H](CCCNC(=N)N)C(=O)N1CCC[C@H]1C(=O)N1CCC[C@H]1C(=O)N[C@@H](CCCNC(=N)N)C(=O)N1CCC[C@H]1C(=O)N[C@H](C(=O)N[C@@H](CCCNC(=N)N)C(N)=O)C(C)C) [Peptide 6] | – | – | – | – | – | – | – | – | inhibited Cf-ARV-1502 | low activity against E. coli |
| CC(C)C[C@H](NC(=O)[C@H](Cc1ccc(O)cc1)NC(=O)[C@@H]1CCCN1C(=O)[C@H](CCCNC(=N)N)NC(=O)[C@@H]1CCCN1C(=O)[C@H](Cc1ccccc1)NC(=O)[C@H](Cc1ccccc1)NC(=O)[C@@H]1CCCN1C(=O)[C@H](CCCNC(=N)N)NC(=O)C1(N)CCCCC1)C(=O)N[C@@H](CCCCN)C(=O)N[C@@H](CCCNC(=N)N)C(=O)N1CCC[C@H]1C(=O)N[C@@H](CCCNC(=N)N)C(=O)N1CCC[C@H]1C(=O)N1CCC[C@H]1C(=O)N[C@@H](CCCNC(=N)N)C(=O)N1CCC[C@H]1C(=O)N[C@H](C(=O)N[C@@H](CCCNC(=N)N)C(N)=O)C(C)C [Peptide 98] (H-[Ac6c]RPFFPRPYLKRPRPPRPVR-NH2; N-terminus and C-terminus assumed) | 56.2 ± 2.1 | – | 98.3 ± 1.5 | 8 to 16 | 8 to 16 | – | 32 µg/mL | – | poor competitor of Cf-ARV-1502 | – |
